Like-named read-outs stand apart in the source and are kept apart here.

Assay [1] relates to Pseudomonas aeruginosa (strain PAO1). Put plainly: Viable cell count of Pseudomonas aeruginosa strain PAO1 cultured with peptide and polymyxin B. It counts as cell-based. The note with it: 0.4 μg/mL polymyxin B. As for the experimental part:
At this time, the culture was performed under conditions in which various concentrations of a peptide, LTLR (a peptide consisting of 4 amino acid residues, having the sequence leucine-threonine-leucine-arginine) were added. Under each condition, the number of viable cells of Pseudomonas aeruginosa was measured, and it was measured how the addition of the peptide changes the number of the viable cells compared to the number of the viable cells for no addition of the peptide. The results are shown in the graph of FIG. 4(A).

Assay [2] has as its system Clinical isolates (strains 24, 42, 83, 88 and 92 of P. aeruginosa), strain nalB, strain nfxC. The following applies: 3 mM LTLR, polymyxin B 0.2 μg/mL. As for the experimental part:
In Examples and the like described below, the number of viable cells of Gram-negative bacteria (Pseudomonas aeruginosa or Escherichia coli) is measured as follows. A portion of bacteria cultured at 37° C. overnight is added to a fresh MH medium and continues to be cultured at the same temperature. When the turbidity (absorbance at 600 nm) of the bacteria reaches 0.7-0.8, the bacterial solution is added an MH medium to prepare a bacterial solution diluted 1:100-200, which is used for experimental purposes. A solution in which 60-80 μL of the bacterial solution was added to a solution of a peptide and the like to a final amount of 100 μL is cultured for a certain time (3 hours) while stirring at 37° C. After culture, the bacterial solution was diluted with a PBS solution, and the diluted solution is seeded on an MH agar plate and cultured at 37° C. overnight. The following day, the number of colonies grown on the plate is counted to determine the number of viable bacterial cells.
Clinical isolates (strains 24, 42, 83, 88 and 92 of P. aeruginosa), strain nalB (a strain having acquired high multidrug resistance by highly expressing MexAB-OprM as a drug efflux pump), and strain nfxC (a strain having acquired high multidrug resistance by highly expressing MexEF-OprN as a drug efflux pump) were used in place of the strain PA01 (standard strain) of Pseudomonas aeruginosa used in Example 1 to measure the action of LTLR thereon. In this experiment, the final concentration of polymyxin B was set at 0.2 μg/mL with 3 mM LTLR added to examine changes in the survival rate thereof.

For another assay, the system named is Escherichia coli. Put plainly: Viable cell count of Escherichia coli with peptide and polymyxin B. Format: cell-based. The following applies: ATCC25922; 3 mM LTLR; polymyxin B 0.2 μg/mL. As for the experimental part: Escherichia coli (ATCC25922) was used in place of Pseudomonas aeruginosa for the same measurement as in Example 2.
LTLR whose carboxy terminal was amidated was synthesized to examine the action thereof. Under the same conditions as those in Example 1, various concentrations of the amidated LTLR were added to examine changes in the survival rate of Pseudomonas aeruginosa.

With “leucine-threonine-leucine-arginine [LTLR]”, the “survival rate of Pseudomonas aeruginosa” value in assay [1] (2.5 mM peptide, 3 hours culture, vs no addition of peptide) is reported as ~0%. In assay [1] (various concentrations of peptide), the “change in survival rate of Pseudomonas aeruginosa” value was “decreased in a manner dependent on the concentration”. Also, the “Survival Rate (%)” value came to 0% in assay [2] (P. aeruginosa 24); 43% in assay [2] (P. aeruginosa 42); 0% in assay [2] (P. aeruginosa 83); 25% in assay [2] (P. aeruginosa 88); 9% in assay [2] (P. aeruginosa 92); 0% in assay [2] (strain nalB (highly expressing MexAB-OprM)). In assay [2] (strain nfxC (highly expressing MexEF-OprN)), the “Survival Rate (%)” value amounted to 1%. Also, the “survival rate of Escherichia coli” value with Escherichia coli is listed as “about 1%”.
